Measurements: patent US4026857A, “Epoxy emulsion water-based coating” (priority 1975, dated 1977)

How the values were obtained:
[1] = Solubility of solvents in water and of water in solvents; type: physicochemical; conditions: for Solubility, Solvent in H2 O: solvent in water; for Solubility, H2 O in Solvent: water in solvent
[2] = Emulsion formation with different organic solvents; type: physicochemical; conditions: 50 parts solvent, 100 parts epoxy resin, 14 parts surfactant, 150 parts deionized water
Method: A series of emulsions were prepared using 100 parts of an epoxy resin (diglycidylether of bisphenol A) having an epoxy equivalent weight of 2,000-2,500, 50 parts of a solvent, 14 parts of surfactant having the formula [drawing 1] wherein a+ c is about 190-200, b is about 60-70, and average molecular weight is about 12,500, and 150 parts of deionized water. In each emulsion a different solvent was used. Each emulsion, as well as other emulsions whose formulations are described in this specification, was prepared using the following general procedure:
The epoxy resin was dissolved in the solvent by heating at 130° C. with agitation. The resin solution was then cooled to about 65° C. and placed in high speed dispersing equipment. The surfactant was added. (In formulations wherein the emulsion coating was to be baked, cross-linking catalyst and curing agent, as defined hereinafter, were also added at this point.) Part of the water (about 100 parts) was then slowly added under high speed agitation (approximately 2,000 ft./min. peripheral speed) to pass the inversion point. Thereupon the agitation speed was slowed down to about 1,000 ft./min. and the balance of the water was added.
In each emulsion, a different organic solvent was used. […] Each emulsion formed was applied, by wire wound bar application, to a test panel of lubricated electrolytic tinplated steel. […]

Row | Solubility, Solvent in H2 O [1] | Solubility, H2 O in Solvent [1] | emulsion formation [2] | Compound
1 | – | – | an emulsion could not be formed | OCCOCCOc1ccccc1 [diethylene glycol monophenyl ether]
2 | – | – | an emulsion could not be formed | CC(C)CC(=O)CC(C)C [diisobutyl ketone]
3 | .infin. | .infin. | – | CCOCCO [Ethyl Cellosolve]
4 | 0.99 wt. % | 18.8 wt. % | – | CCCCCCOCCO [Hexyl Cellosolve, 2-Hexoxyethanol]

Row | Compound | Solubility, Solvent in H2 O [1] | Solubility, H2 O in Solvent [1] | emulsion formation [2]
5 | COCCO [Methyl Cellosolve] | .infin. | .infin. | –
